Experimental data: publication PMC6222798, “A Novel Class of Tyrosyl-DNA Phosphodiesterase 1 Inhibitors That Contains the Octahydro-2H-chromen-4-ol Scaffold” (Molecules : A Journal of Synthetic Chemistry and Natural …, 2018)
Like-named read-outs stand apart in the source and are kept apart here.

Experiments:
[1] = target: T1, human Tdp1 (residues 149-608) (Homo sapiens, UniProt Q9NUW8); assay: Intrinsic protein fluorescence-based Tdp1 binding assay; settings: supplementary figure legends; Tdp1 10 μM, 20 mM Tris, 250 mM NaCl, pH 8, triplicate
T1 construct: human Tdp1 (residues 149-608); made in house; host or cells: Escherichia coli BL21(DE3)
T1 sequence (Q9NUW8 149-608): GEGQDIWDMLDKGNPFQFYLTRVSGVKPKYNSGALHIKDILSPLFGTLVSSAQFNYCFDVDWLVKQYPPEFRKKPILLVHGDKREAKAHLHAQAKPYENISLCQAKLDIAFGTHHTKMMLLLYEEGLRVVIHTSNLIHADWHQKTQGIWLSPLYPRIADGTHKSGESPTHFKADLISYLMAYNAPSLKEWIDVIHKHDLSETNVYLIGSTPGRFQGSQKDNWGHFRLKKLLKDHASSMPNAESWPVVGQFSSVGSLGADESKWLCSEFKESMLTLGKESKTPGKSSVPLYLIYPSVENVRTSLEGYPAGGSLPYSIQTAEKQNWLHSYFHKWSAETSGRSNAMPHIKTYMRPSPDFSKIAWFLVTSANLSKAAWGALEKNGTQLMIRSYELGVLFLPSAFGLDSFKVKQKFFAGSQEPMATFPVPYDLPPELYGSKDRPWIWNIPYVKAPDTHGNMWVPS
Experimental: In addition to the inhibition assay, the binding of our compounds to Tdp1 was also evaluated. An intrinsic protein fluorescence-based assay, which we have previously applied to study the binding of esters combining monoterpenoid and adamantane fragments, was applied. In agreement with the inhibition data, all our compounds were relatively strong binders to Tdp1, with dissociation constants (KD) in the low μM region (Table 1 and Supplementary Figures S1–S7). […] This is possibly due to the large hydrophobic surface of Tdp1. The slight discrepancy between the measured KD and IC50 values is likely due to these non-specific binding events.
Synthetic DNA encoding human Tdp1 (residues 149-608 [2]) was cloned into pET-28a(+) (GenScript), which was then transformed into Escherichia coli BL21(DE3) for recombinant protein production. Protein production was induced with 1 mM IPTG at 28 °C with overnight incubation. Tdp1 was purified using affinity and size exclusion chromatography. Fluorescence was measured using a PerkinElmer EnSpire Multimode Reader. Tdp1 concentration was 10 μM and compound concentrations were 1 μM, 2.5 μM, 5 μM, 10 μM, 15 μM, 20 μM, 30 μM, 50 μM, 100 μM, 200 μM, 350 μM, 500 μM, and 750 μM. Buffer was 20 mM Tris and 250 mM NaCl (pH 8). Excitation wavelength was 280 nm and intrinsic fluorescence was measured between 300 and 450 nm. Control experiments with Tdp1 or compound on its own were also conducted. Background fluorescence arising from the compounds was subtracted from the final spectrum. The total volume per well was 30 μL. Dissociation constant (KD) values were calculated using the following formula (1), which takes non-specific binding into account. I = Imax ×[LT]/KD+[LT] +Ns[LT]
I indicates changes in fluorescence intensity from the titrations, Imax indicates the maximum fluorescence intensity change, [LT] is the titrated ligand concentration, and Ns is the non-specific term. Non-linear curve fitting was conducted using SigmaPlot 13.0 (Systat Software, San Jose, CA, USA). Experiments were conducted in triplicate and the errors shown are standard derivations.

Tdp1 [2] = target: T2, Tdp1 (Homo sapiens, UniProt Q9NUW8); assay: Real-time oligonucleotide biosensor-based Tdp1 inhibition assay; assay type: biochemical
T2 construct: inferred from pET 16B vector and Ni-chelating resin; made in house; host or cells: Escherichia coli BL21(DE3)
T2 sequence (Q9NUW8 whole entry): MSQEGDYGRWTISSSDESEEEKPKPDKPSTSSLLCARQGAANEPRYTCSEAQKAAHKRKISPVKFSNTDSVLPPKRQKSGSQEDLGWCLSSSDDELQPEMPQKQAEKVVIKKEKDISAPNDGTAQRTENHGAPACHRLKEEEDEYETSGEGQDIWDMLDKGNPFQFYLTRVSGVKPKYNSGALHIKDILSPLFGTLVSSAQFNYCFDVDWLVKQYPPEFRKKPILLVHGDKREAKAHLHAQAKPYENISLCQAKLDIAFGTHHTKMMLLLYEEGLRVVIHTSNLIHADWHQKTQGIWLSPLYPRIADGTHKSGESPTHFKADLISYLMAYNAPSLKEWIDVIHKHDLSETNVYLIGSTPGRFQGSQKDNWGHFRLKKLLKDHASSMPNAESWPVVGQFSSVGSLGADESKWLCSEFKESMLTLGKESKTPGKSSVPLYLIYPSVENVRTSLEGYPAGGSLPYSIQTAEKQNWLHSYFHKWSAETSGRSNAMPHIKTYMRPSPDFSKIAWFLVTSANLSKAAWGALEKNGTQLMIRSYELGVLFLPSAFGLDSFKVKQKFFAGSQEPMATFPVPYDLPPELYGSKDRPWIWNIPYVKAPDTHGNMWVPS
Experimental: The inhibition potency of our synthesised compounds against Tdp1 was evaluated by using a real-time oligonucleotide biosensor-based assay. In this assay, Tdp1 catalyses the removal of fluorophore quenchers from the 3′-end of a modified DNA substrate. […] Hexadecameric oligonucleotide was selected as a Tdp1 substrate, as it contains 5(6)-carboxyfluorescein (FAM) at the 5′-end and fluorophore quencher BHQ1 (Black Hole Quencher-1) at the 3′-end. This approach was used to determine the inhibitory properties of all the chromenes.
The pET 16B-Tdp1 was kindly provided by Dr. K.W. Caldecott (University of Sussex, United Kingdom). Recombinant Tdp1 was expressed in Escherichia coli BL21(DE3) and was purified by chromatography on Ni-chelating resin and phosphocellulose P11, as described in [29].
Real-time Tdp1 activity measurements were carried out as described in [9]. In brief, Tdp1-biosensor (50 nM) was incubated in a buffer that contains 50 mM Tris-HCl pH 8.0, 50 mM NaCl, and 7 mM β-mercaptoethanol (200 μL). The mixture was then supplemented with purified Tdp1 (1.3 nM) and various concentrations of the inhibitor. Fluorescence measurements (Ex485/Em520 nm) were carried out during the linear phase of reaction (from 0 to 8 min) every 55 s. The reactions were incubated at a constant temperature of 26 °C using a POLARstar OPTIMA fluorimeter (BMG LABTECH). The influence of the compounds was evaluated by comparing the fluorescence increase rate in their presence to that of 1.5% DMSO control wells. The data were imported into the MARS Data Analysis 2.0 program (BMG LABTECH), and IC50 values were calculated by non-linear curve fitting.

Tdp1 [3] = target: T2, Tdp1; settings: Figure 1; cited from earlier work

Row | SMILES | Kd [1] | IC50 (Tdp1 [2]; Table 1, (4S) diastereomer) | IC50 (Tdp1 [2]; Table 1, (4R) diastereomer) | IC50 (Tdp1 [2]; Table 2) | IC50 (Tdp1 [3])
1 | C[C@@H]1CC[C@@H]2[C@H](C1)O[C@@H](c1ccc(NC(=O)C34CC5CC(CC(C5)C3)C4)s1)C[C@]2(C)O [(4S)-13, N-(5-((2R,4S,4aR,7R,8aS)-4-Hydroxy-4,7-dimethyloctahydro-2H-chromen-2-yl)thiophen-2-yl)adamantane-1-carboxamide] | 17.9 ± 3.4 µM | 1.24 ± 0.02 µM |  |  | 
2 | C[C@@H]1CC[C@@H]2[C@@H](C1)O[C@@H](c1ccc(NC(=O)c3ccccc3)s1)C[C@]2(C)O [(4S)-12, N-(5-((2R,4S,4aR,7R,8aR)-4-Hydroxy-4,7-dimethyloctahydro-2H-chromen-2-yl)thiophen-2-yl)benzamide] | 24.5 ± 5.7 µM | 5 ± 1.5 µM |  |  | 
3 | C[C@@H]1CC[C@@H]2[C@@H](C1)O[C@@H](c1ccc([N+](=O)[O-])s1)C[C@@]2(C)O [(4R)-8, (2R,4aR,7R,8aS)-4,7-Dimethyl-2-(5-nitrothiophen-2-yl)octahydro-2H-chromen-4-ols] | 23.3 ± 7.4 µM |  | > 15 µM | > 15 µM | 
4 | CC1(C)[C@H]2CC=C(COc3ccc4c5c(c(=O)oc4c3)CCC5)[C@@H]1C2 [Compound 3] |  |  |  |  | 675 nM
5 | C[C@@H]1CC[C@@H]2[C@H](C1)O[C@@H](c1ccc(NC(=O)C34CC5CC(CC(C5)C3)C4)s1)C[C@@]2(C)O [(4R)-13, N-(5-((2R,4R,4aR,7R,8aS)-4-Hydroxy-4,7-dimethyloctahydro-2H-chromen-2-yl)thiophen-2-yl)adamantane-1-carboxamide] | 12.4 ± 7.5 µM |  | 2.8 ± 0.6 µM |  | 
6 | O=c1cccc([C@H]2[C@H](c3ccc(O)cc3)[C@H](c3cccc(=O)o3)[C@H]2c2ccc(O)cc2)o1 [Compound 2, achyrodimer F] |  |  |  |  | 1000 nM
7 | C[C@@H]1CC[C@@H]2[C@@H](C1)O[C@@H](c1ccc([N+](=O)[O-])s1)C[C@]2(C)O [(4S)-8, (2R,4aR,7R,8aS)-4,7-Dimethyl-2-(5-nitrothiophen-2-yl)octahydro-2H-chromen-4-ols] | 30.6 ± 9.33 µM | > 15 µM |  | > 15 µM | 

More lines, main results first:

Row | Kd [1] | IC50 (Tdp1 [2]; Table 1, (4S) diastereomer) | IC50 (Tdp1 [2]; Table 1, (4R) diastereomer) | IC50 (Tdp1 [2]; Table 2) | SMILES | IC50 (Tdp1 [3])
8 | 19.8 ± 2.4 µM |  | 4 ± 0.4 µM |  | C[C@@H]1CC[C@@H]2[C@@H](C1)O[C@@H](c1ccc(NC(=O)C(F)(F)F)s1)C[C@@]2(C)O [(4R)-11, 2,2,2-Trifluoro-N-(5-((2R,4R,4aR,7R,8aR)-4-hydroxy-4,7-dimethyloctahydro-2H-chromen-2-yl)thiophen-2-yl)acetamide] | 
9 |  |  | 2.9 ± 0.8 µM |  | CC(=O)Nc1ccc([C@H]2C[C@@](C)(O)[C@@H]3CC[C@@H](C)C[C@H]3O2)s1 [(4R)-10, N-(5-((2R,4R,4aR,7R,8aR)-4-Hydroxy-4,7-dimethyloctahydro-2H-chromen-2-yl)thiophen-2-yl)acetamide] | 
10 |  |  | > 15 µM | > 15 µM | C[C@@H]1CC[C@@H]2[C@H](C1)O[C@@H](c1ccc(N)s1)C[C@@]2(C)O [(4R)-9, (2R,4R,4aR,7R,8aS)-4,7-Dimethyl-2-(5-aminothiophen-2-yl)octahydro-2H-chromen-4-ol] | 
11 |  |  | 3.3 ± 0.2 µM |  | C[C@@H]1CC[C@@H]2[C@@H](C1)O[C@@H](c1ccc(NC(=O)c3ccccc3)s1)C[C@@]2(C)O [(4R)-12, N-(5-((2R,4R,4aR,7R,8aR)-4-Hydroxy-4,7-dimethyloctahydro-2H-chromen-2-yl)thiophen-2-yl)benzamide] | 
12 | 2 ± 1.2 µM | 1.4 ± 0.3 µM |  |  | C[C@@H]1CC[C@@H]2[C@@H](C1)O[C@@H](c1ccc(NC(=O)C(F)(F)F)s1)C[C@]2(C)O [(4S)-11, 2,2,2-Trifluoro-N-(5-((2R,4S,4aR,7R,8aR)-4-hydroxy-4,7-dimethyloctahydro-2H-chromen-2-yl)thiophen-2-yl)acetamide] | 
13 |  | > 15 µM |  | > 15 µM | C[C@@H]1CC[C@@H]2[C@H](C1)O[C@@H](c1ccc(N)s1)C[C@]2(C)O [(4S)-9, (2R,4S,4aR,7R,8aS)-4,7-dimethyl-2-(5-aminothiophen-2-yl)octahydro-2H-chromen-4-ol] | 
14 |  | 5.8 ± 3 µM |  |  | CC(=O)Nc1ccc([C@H]2C[C@](C)(O)[C@@H]3CC[C@@H](C)C[C@H]3O2)s1 [(4S)-10, N-(5-((2R,4S,4aR,7R,8aR)-4-Hydroxy-4,7-dimethyloctahydro-2H-chromen-2-yl)thiophen-2-yl)acetamide] | 
